Reference: US12691116B2, “SETBP1 and XPO1 inhibitors for the treatment of sickle cell disease and β-thalassemia” (The Henry M. Jackson Foundation for the Advancement of …, priority 2019, dated 2026)

Columns and labels:
[1] = tested on: SETBP1 interaction with XPO1; settings: cited from earlier work
SETBP1 = SETBP1 (Homo sapiens, UniProt Q9Y6X0); settings: cited from earlier work
human erythroid cells = assay: Erythroid differentiation of human mobilized CD34+ cells, real-time RT-PCR of globin mRNA; type: cell-based; settings: human erythroid cells from CD34+ cells, treatment from day 5 of expansion, harvested day 10 of differentiation
From the text: Human CD34^+ cells mobilized by granulocyte-colony stimulating factor (G-CSF) were induced to undergo erythroid differentiation in culture. Treatment with Compound 1AA and 1BB at indicated concentrations or vehicles (DMSO or water) were started at day 5 of expansion condition. Erythroid cells were harvested at day 10 of differentiation condition for real-time RT-PCR analysis of human embryonic […] (FIG. 8A), fetal γ (FIG. 8B), and adult β (FIG. 8C) hemoglobin mRNA levels. Relative expression levels were calculated by normalizing to RPL4 mRNA levels in the same sample and also to cells treated with DMSO. (FIG. 8D) Representative bar graphs showing mRNA levels of human embryonic and fetal hemoglobin (γ+ε) as a percentage of total β-like globin (β+γ+ε) mRNA levels after treatment with Compound 1AA and 1BB versus DMSO. Note that a level of 20% or above for embryonic and fetal hemoglobin is considered curative for sickle cell disease. **, P<0.01; ***, P<0.001; ****P<0.0001 (two-tailed Student's t test).
(§1) For studies using MEL cells, the cells were treated with selected inhibitors or vehicle in a culture medium (RPM 11640 medium with 10% fetal bovine serum) for 48 hours and were subsequently harvested for analysis of relative mRNA levels of Hbb-bh1, Hbb-y, and Hbb-b1 using real-time RT-PCR. For studies using primary human CD34+ hematopoietic stem and progenitor cells, the cells were treated with inhibitors or vehicle following or concurrent with induction of erythroid differentiation using an established two-phase culture protocol (Xu et al., Genes & Development 24(8): 783-798 (2010)). Relative mRNA levels of β-like globin genes in human cells after treatment were also analyzed using real-time RT-PCR.
Primary human mobilized CD34^+ cells were initially cultured in expansion medium containing StemSpan SFEM Medium (StemCell Technologies Inc.) with 1×CC100 cytokine mix (StemCell Technologies Inc.) and 2% Penicillin-Streptomycin (Life Technologies Inc.). Cells were maintained in this expansion medium at a density of 0.1-1×10^6 cells/mL for a total of six days with media changes every two days. On day 6, cells were transferred into differentiation medium containing StemSpan SFEM Medium with 2% Penicillin-Streptomycin, 20 ng/ml SCF (Biolegend), 1 U/ml EPO (Amgen), 5 ng/ml IL-3 (Biolegend), 2 μM dexamethasone (Sigma), and 1 μM β-estradiol (Sigma). Cells were maintained at a density of 0.1-1×10^6 cells/mL in differentiation medium for 10 days with media changes every two days. Drug treatments were started at day 5 of expansion condition and maintained thereafter. Fresh drugs were added at each medium change.

MEL cells [2] = assay: Real-time RT-PCR of hemoglobin mRNA in MEL cells 48 hours after removal of compound (24 hours treatment); type: cell-based, mouse; settings: treated 24 hours, examined 48 hours after removal
Protocol: Real-time RT-PCR analysis of Hbb-bh1, Hbb-y, and Hbb-b1 mRNA levels in MEL cells 48 hours after removal of Compound (1AA) or KPT-185 from culture. The cells were first treated with Compound (1AA) or KPT-185 for 24 hours. Relative expression levels were calculated by normalizing to Rpl4 mRNA levels in the same sample and also to cells treated with DMSO.
A further experiment examined whether continuous treatment of Compound (1AA) and KPT-185 as exemplary SETBP1 and XPO1 inhibitors, respectively, was required for activation of Hbb-bh1 and Hbb-y expression. MEL cells were treated with Compound (1AA) and KPT-185 for 24 hours and the Hbb-bh1 and Hbb-y mRNA levels were then examined at 48 hours after their removal.

MEL cells [3] = assay: Real-time RT-PCR of Hbb-bh1, Hbb-y and Hbb-b1 mRNA in MEL cells after 48 hours of treatment; type: cell-based, mouse; settings: for increase in Hbb-bh1 (embryonic hemoglobin) mRNA level / increase in Hbb-y (fetal hemoglobin) mRNA level: 0.1 μM, 48 hours, relative to vehicle, normalized to Rpl4; for effect on Hbb-bh1 mRNA level (in words) / effect on Hbb-y mRNA level (in words): 48 hours of treatment at indicated concentration
Protocol: Real-time RT-PCR analysis of Hbb-bh1, Hbb-y, and Hbb-b1 mRNA levels in MEL cells after 48 hours of treatment with compound 1AA at indicated concentration or with control DMSO. Relative expression levels were calculated by normalizing to Rpl4 mRNA levels in the same sample and also to cells […] with DMSO. […]
Relative expression levels were calculated by normalizing to Rpl4 mRNA levels in the same sample and also to cells treated with DMSO.
as §1

Sequence of SETBP1 (Q9Y6X0 whole entry): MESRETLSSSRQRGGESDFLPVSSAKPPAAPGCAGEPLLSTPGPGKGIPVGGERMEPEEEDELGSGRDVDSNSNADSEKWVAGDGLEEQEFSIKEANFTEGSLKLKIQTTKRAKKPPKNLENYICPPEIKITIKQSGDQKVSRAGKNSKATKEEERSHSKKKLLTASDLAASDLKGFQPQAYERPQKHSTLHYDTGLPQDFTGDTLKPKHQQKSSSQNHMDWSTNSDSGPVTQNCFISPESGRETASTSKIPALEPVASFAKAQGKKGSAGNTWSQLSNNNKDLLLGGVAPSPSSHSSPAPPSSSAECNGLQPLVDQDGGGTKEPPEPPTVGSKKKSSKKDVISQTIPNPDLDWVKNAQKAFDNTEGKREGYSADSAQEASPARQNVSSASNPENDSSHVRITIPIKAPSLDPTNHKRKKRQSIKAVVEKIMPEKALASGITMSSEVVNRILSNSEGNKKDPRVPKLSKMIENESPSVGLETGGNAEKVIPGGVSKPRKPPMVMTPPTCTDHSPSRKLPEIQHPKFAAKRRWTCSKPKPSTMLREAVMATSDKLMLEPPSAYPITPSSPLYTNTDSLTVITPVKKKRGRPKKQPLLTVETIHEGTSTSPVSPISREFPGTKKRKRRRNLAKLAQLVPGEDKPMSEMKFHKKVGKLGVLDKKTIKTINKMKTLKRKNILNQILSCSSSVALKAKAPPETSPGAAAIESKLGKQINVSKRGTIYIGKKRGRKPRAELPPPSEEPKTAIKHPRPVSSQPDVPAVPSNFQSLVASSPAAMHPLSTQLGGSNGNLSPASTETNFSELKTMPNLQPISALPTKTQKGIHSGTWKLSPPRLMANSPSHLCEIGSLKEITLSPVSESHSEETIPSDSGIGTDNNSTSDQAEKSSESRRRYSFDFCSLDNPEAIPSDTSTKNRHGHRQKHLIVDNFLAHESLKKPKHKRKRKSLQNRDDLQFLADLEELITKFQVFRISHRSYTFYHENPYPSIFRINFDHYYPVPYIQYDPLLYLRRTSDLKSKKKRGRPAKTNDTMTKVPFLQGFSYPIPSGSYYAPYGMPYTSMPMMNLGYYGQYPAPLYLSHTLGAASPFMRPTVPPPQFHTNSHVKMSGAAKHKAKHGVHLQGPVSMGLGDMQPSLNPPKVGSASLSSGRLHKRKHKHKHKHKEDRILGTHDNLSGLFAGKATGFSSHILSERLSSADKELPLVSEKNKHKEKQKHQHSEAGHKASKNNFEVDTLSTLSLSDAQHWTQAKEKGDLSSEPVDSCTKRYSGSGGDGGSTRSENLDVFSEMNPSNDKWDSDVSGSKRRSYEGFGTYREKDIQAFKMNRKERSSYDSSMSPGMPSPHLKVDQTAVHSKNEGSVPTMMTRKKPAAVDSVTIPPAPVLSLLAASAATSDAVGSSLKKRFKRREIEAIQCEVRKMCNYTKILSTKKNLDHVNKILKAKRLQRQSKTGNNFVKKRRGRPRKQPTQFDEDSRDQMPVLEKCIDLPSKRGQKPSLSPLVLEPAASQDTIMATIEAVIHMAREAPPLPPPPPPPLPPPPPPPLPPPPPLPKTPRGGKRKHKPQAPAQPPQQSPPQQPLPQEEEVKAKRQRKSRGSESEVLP

SMILES	blocking of SETBP1 interaction with cofactor XPO1 [1]	inhibition of SETBP1 (transcriptional activity) (SETBP1)	human embryonic hemoglobin mRNA level (human erythroid cells)	human fetal γ hemoglobin mRNA level (human erythroid cells)	Hbb-bh1 mRNA level after removal of compound (MEL cells [2])	Hbb-y mRNA level after removal of compound (MEL cells [2])	increase in Hbb-bh1 (embryonic hemoglobin) mRNA level (MEL cells [3])	increase in Hbb-y (fetal hemoglobin) mRNA level (MEL cells [3])	effect on adult hemoglobin Hbb-b1 mRNA level (MEL cells [3]; 48 hours of treatment)	effect on Hbb-bh1 mRNA level (in words) (MEL cells [3])	effect on Hbb-y mRNA level (in words) (MEL cells [3])	Hbb-bh1 mRNA level compared to cells treated with hydroxyurea (MEL cells [3]; 48 hours of treatment) [fold]
Cc1c2cc[n+](CCN3CCCCC3)cc2c(C)c2c1[nH]c1ccc(O)cc12.[Br-] [Compound (1AA)]	blocking	inhibitor	significantly increased	significantly increased	Significantly elevated levels	Significantly elevated levels	> 8 fold	> 8 fold	only minor changes	–	–	–
CCN(CC)CC[n+]1ccc2c(C)c3[nH]c4ccc(O)cc4c3c(C)c2c1.[Cl-] [Compound (1BB)]	–	inhibitor	significantly increased	significantly increased	–	–	–	–	minor effects	significantly increase	significantly increase	–
COc1cc(-c2ncn(/C=C\C(=O)OC(C)C)n2)cc(C(F)(F)F)c1 [KPT-185, reference compound]	–	–	–	–	Significantly elevated levels	Significantly elevated levels	over 60 fold	over 14 fold	–	–	–	~30
O=C(/C=C\n1cnc(-c2cc(C(F)(F)F)cc(C(F)(F)F)c2)n1)NNc1cnccn1 [KPT-330, reference compound]	–	–	–	–	–	–	–	–	–	–	significantly increase	–
NC(=O)/C(=C/n1cnc(-c2cc(C(F)(F)F)cc(C(F)(F)F)c2)n1)c1cncnc1 [KPT-8602, reference compound]	–	–	–	–	–	–	–	–	–	significantly increase	significantly increase	–
